# Test system: Botrytis cinerea
# Assay: Activity against gray mold on bell pepper leaves caused by Botrytis cinerea, protective application (also comparative experiment)
# Format: in vivo
# Details: 5 days, untreated 90
# Procedure: The active compounds were prepared as a stock solution comprising 25 mg of active compound which was made up to 10 ml using a mixture of acetone and/or dimethyl sulfoxide and the emulsifier Uniperol® EL (wetting agent having an emulsifying and dispersing action based on ethoxylated alkylphenols) in a volume ratio of solvent/emulsifier of 99:1. The mixture was then made up to 100 ml with water. This stock solution was diluted with the solvent/emulsifier/water mixture described to give the desired concentration of active compounds.
# Activity Against Gray Mold on Bell Pepper Leaves Caused by Botrytis cinerea, Protective Application
# Bell pepper seedlings of the cultivar “Neusiedler Ideal Elite” were, after 2-3 leaves were well developed, sprayed to runoff point with an aqueous suspension having the concentration of active compounds stated below. The next day, the treated plants were inoculated with a spore suspension of Botrytis cinerea which comprised 1.7×10^6 spores/ml in a 2% strength aqueous biomalt solution. The test plants were then placed into a dark climatized chamber at 22-24° C. and high atmospheric humidity. After 5 days, the extent of the fungal infection on the leaves could be determined visually in %.
# Comparative Experiment—Activity Against Gray Mold on Bell Pepper Leaves Caused by Botrytis cinerea, Protective Application
# Compound No. 47 of Table 1 from EP-A 0 589 301 was compared to compounds 9.17 and 9.20 according to the invention from Table 9.
row,Compound,Infection in % at 250 ppm at BOTRCI P1
1,Cc1nn(C)cc1C(=O)Nc1ccccc1-c1ccc(F)cc1F [9.20],7%
2,Cc1nn(C)cc1C(=O)Nc1ccccc1-c1ccc(F)c(Cl)c1 [9.17],5%
3,"Cc1nn(C)cc1C(=O)Nc1ccccc1-c1ccc(F)cc1 [Comp. 47, reference compound]",60%

# From patent US8008232B2, “Pyrazolecarboxanilides, process for their preparation and compositions comprising them for controlling harmful fungi” (BASF Aktiengesellschaft, priority 2005, dated 2011)
